Broadly, the LC50 is the concentration that kills 50% of the test population. The term EC50 denotes the concentration at which the effect is half-maximal. The pEC50 is the negative decadic logarithm of the EC50, by convention in mol/L.

pEC50: −log10 of the molar value. Converted amounts (≈) assume the structure as drawn. Read-outs that look alike come from different tables or passages of the source.

Data set [1] in a line: Refined Fish Embryo Acute Toxicity test (FET, OECD TG 236): mortality. The format is in vivo, zebrafish (Danio rerio). The note with it: tg(cyp19a1b:GFP), zebrafish, in vivo, other: waterborne exposure of embryos in test solution, LC50 (96h) experimental (FET test), nominal, brackets 95% CI. Here is the method:
(§1) Exposures were carried out in presaturated 24-well plates containing one embryo per well in 2 mL of test solution. The exposure was performed under semistatic conditions, with daily renewal of the test solution. The concentration ranges tested, along with a control with the same percentage of solvent alone, are recapitulated in Table S1. All exposure concentrations are reported as nominal. During the time course of the refined FET tests, embryos were observed after 8 h (coagulation), 24 h (lack of somite formation and nondetachment of the tail), and 48, 72, and 96 h of exposure (nondetection of the heartbeat). […] Moreover, hatching rate and nonlethal developmental effects (i.e., yolk deformity, growth retardation, spontaneous movement, edema, blood tail circulation, heart rate, pigmentation, head and tail/spinal malformations, and hemorrhage) were monitored daily. Tail/spinal malformations included lordosis, kyphosis, scoliosis, and reduced tail length.
(§2) This analysis considered all nonlethal developmental end points monitored in the refined FET assay (see above), except effects on hatching, pigmentation, spontaneous movement, and blood circulation. A teratogenic index (TI) was then calculated as the ratio LC50/EC50.
Baseline toxicity and experimental FET LC50 values were used to calculate toxic ratios (TR = predicted baseline toxicity LC50/experimental FET LC50). Compounds with TR < 10 were considered as baseline toxicants.

Data set [2] concerns tg(cyp19a1b:GFP) zebrafish embryos. Briefly: Refined FET: developmental effects / malformations. The format is in vivo, zebrafish (Danio rerio). The note with it: nominal; for EC50: Danio rerio, end of 96 h exposure, read-out: EC50 malformations (cumulative sublethal end points); for LOEC deformity of yolk: at least 10% of embryos affected. The procedure: as §1, §2
The test system of data set [3] is cyp19a1b:GFP (brain aromatase) in tg(cyp19a1b:GFP) zebrafish embryos. Kind of data set: EASZY assay (OECD TG 250): GFP induction. Format: in vivo, zebrafish (Danio rerio). Here is the method:
The tests were conducted according to OECD TG 250. Newly fertilized cyp19a1b-GFP eggs were transferred to glass crystallizing dishes and exposed for 96 h in a humidified climate chamber (27 ± 2 °C) under semistatic conditions with a total renewal of the test solutions each day. Each condition consisted of three crystallizing dishes, each containing 7 embryos and 15 mL of test medium. Embryos were exposed to a range of nonlethal concentrations of chemicals as determined previously based on the refined FET assays. The tested concentration ranges of bisphenols, along with a control with the same percentage of solvent alone, are summarized in Table S2. All exposure concentrations are reported as nominal. At the end of exposure, transgenic zebrafish embryos were collected for fluorescence imaging to quantify GFP intensity. At the end of the experiments, all living zebrafish embryos were euthanized as described above. […] ICI was added together with bisphenols from 0 to 4 dpf (days post fertilization). […] In all coexposure experiments, the final DMSO concentration was 0.02% (v/v).
For fluorescence imaging, GFP fold induction was expressed as mean ± SEM, and values were compared to the DMSO control using one-way ANOVA followed by Dunnett’s posthoc test. […]

In another data set the target is zebrafish ERβ2 (zfERβ2) (Danio rerio, UniProt Q7ZU32). Briefly: ZELH-zfERβ2 luciferase reporter gene assay. Format: cell-based. To be noted: read-out: maximal efficacy. Here is the method: The ZELH-zfERs reporter cell line was previously established after a two-step stable transfection of the zebrafish hepatic cell line ZFL with the luciferase gene under the control of ERE (yielding the ZELH cell line that expresses no functional ER) and the zebrafish ER subtype β2 (yielding the ZELH-zfERβ2 cell line). Cells were cultured, exposed to chemicals for 72 h, and measured for luciferase activity exactly as previously described. , For each chemical, serial dilutions were prepared in DMSO and tested in three independent experiments. The final DMSO concentration in the culture medium was always 0.1% v/v. All tested concentrations refer to nominal concentrations.
Chain of zebrafish ERβ2 (zfERβ2) (Q7ZU32 1-553): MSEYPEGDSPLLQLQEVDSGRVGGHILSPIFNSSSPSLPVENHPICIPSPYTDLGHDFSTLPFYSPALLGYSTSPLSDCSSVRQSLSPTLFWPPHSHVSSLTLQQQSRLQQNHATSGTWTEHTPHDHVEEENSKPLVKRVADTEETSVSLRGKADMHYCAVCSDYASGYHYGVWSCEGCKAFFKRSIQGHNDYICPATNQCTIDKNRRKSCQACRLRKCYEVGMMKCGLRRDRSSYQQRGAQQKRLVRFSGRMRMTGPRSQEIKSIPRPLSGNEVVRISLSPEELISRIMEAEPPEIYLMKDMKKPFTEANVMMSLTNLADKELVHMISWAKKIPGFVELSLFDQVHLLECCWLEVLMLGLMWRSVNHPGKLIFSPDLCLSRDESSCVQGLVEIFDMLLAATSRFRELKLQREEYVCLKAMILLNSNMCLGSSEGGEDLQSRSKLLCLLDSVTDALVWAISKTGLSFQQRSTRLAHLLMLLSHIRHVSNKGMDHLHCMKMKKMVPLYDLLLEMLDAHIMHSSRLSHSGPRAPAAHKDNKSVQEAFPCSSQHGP
(In general: A reporter such as luciferase makes a cellular process visible.)

Data set [4] relates to hERβ. On the set-up: method as in Grimaldi et al. The note with it: HELN-hERβ; ref Grimaldi et al.; cited from earlier work.
The conditions of data set [5]: ref Adamovsky et al.; cited from earlier work.
In data set [6] the test system is hERβ. More on the design: method as in Pelch et al. The note with it: HepG2-hERβ, ref Pelch et al., cited from earlier work.
For a further data set, the system named is Zebrafish embryos. To be noted: cited from earlier work.
The subject of a further data set is Adult Zebrafish. To be noted: ref Ren et al. (2017); cited from earlier work.
The mark [7] stands for this setting: 120h-exposure, ref Qiu et al. (2021).
Setting [8] is: zebrafish embryos, ref Gao et al.
Setting [9] is: zebrafish embryos, ref Ren et al. (2017).
Where [10] appears, read: 150h exposure, ref Song et al. (2014).

For `Oc1ccc(Oc2ccc(O)cc2)cc1` [4,4’-ODP, 4-(4-hydroxyphenoxy)phenol], in [1], the LC50 at 96 h is 17.1 µg/mL (≈ 84.3 µM). Also, in data set [2], the EC50 is 0.35 µg/mL (≈ 1.73 µM), the LOEC edema turned out to be 0.99 mg/L, the LOEC growth retardation amounted to 8.89 mg/L and the LOEC head malformations was 2.96 mg/L. Besides, in data set [2], the “LOEC heart rate disruption” value stood at 2.96 mg/L, the LOEC hemorrhage came out at 0.99 mg/L, the “LOEC no blood tail circulation” value was 8.89 mg/L and the “LOEC no/Less pigmentation” value is listed as 0.99 mg/L. In addition, in data set [2], the LOEC tail/spinal malformations is given as 2.96 mg/L and the “LOEC deformity of yolk” value stood at 2.96 mg/L. Moreover, the EC50 in [3] (Danio rerio, 96 h, read-out: EASZY relative EC50, nominal, 96 h) was determined as 0.363 µg/mL (≈ 1.8 µM). At zebrafish ERβ2 (zfERβ2), the Emax came out at 61%. For the same compound, in the data set on hERβ [4], the pEC50 was 5.51 and the maximal efficacy is 72%.

As for `CCC(C)(c1ccc(O)cc1)c1ccc(O)cc1` [BPB, 4-[2-(4-hydroxyphenyl)butan-2-yl] phenol], the 50% lethal concentration (LC50) at 96 h in data set [1] was determined as 6.85 µg/mL (≈ 28.3 µM). In [2], the EC50 is 5.4 µg/mL (≈ 22.3 µM), the LOEC edema worked out at 5 mg/L, the LOEC head malformations is reported as 10 mg/L and the “LOEC heart rate disruption” value was found to be 10 mg/L. For the same compound, in data set [2], the LOEC hemorrhage is 10 mg/L, the “LOEC no spontaneous movement” value came out at 10 mg/L and the “LOEC deformity of yolk” value is reported as 10 mg/L. Moreover, the minimal effective concentration in data set [3] (Danio rerio, 96 h, read-out: EASZY LOEC (GFP induction), nominal) was found to be 0.312 µg/mL. Besides, the Emax at zebrafish ERβ2 (zfERβ2) was 66%. Also, the “Log Kow” value in [5] was 3.95. Also, in the data set with hERβ [4], the pEC50 is 6.89 and the maximal efficacy is 60%. Further, the maximal efficacy in the data set with hERβ [6] is given as 56%. In the data set on Zebrafish embryos (setting [7]), the “LOEC (body length, GnRH3 neurons, reproductive neuroendocrine-related genes and hormones)” value is reported as 100 µg/L; the “NOEC (body length, GnRH3 neurons, reproductive neuroendocrine-related genes and hormones)” value is reported as 1 µg/L. In the data set with Zebrafish embryos (Wildtype (AB/TL), 1-6 dpf static + 6-9 dpf semistatic, ref Catron et al. (2018; 2019)), the “NOEC (developmental toxicity)” value is listed as 5.1 µM. Besides, the LC50 in the data set with Zebrafish embryos (read-out: LC50(96h), Wildtype AB, 96h-exposure, ref Arrokhman et al. (2023)) is 28000 nM. For the same compound, the “LC50 (96h) literature” value in the data set on Zebrafish embryos (zebrafish embryos, ref Arrokhman et al.) is 6.79 µg/mL (≈ 28 µM). Besides, the “LC50 (96h) literature” value in the data set on Zebrafish embryos (setting [8]) is 3.52 µg/mL (≈ 14.5 µM). Also, in the data set on Zebrafish embryos (setting [9]), the “Body length LOEC” value was 2 mg/L, the “Body length NOEC” value is reported as 1 mg/L, the “LC50(24h)” value was 7.18 µg/mL (≈ 29.6 µM) and the “LC50(48h)” value was 6.54 µg/mL (≈ 27 µM). Also, the “LC50(72h)” value with Zebrafish embryos (setting [9]) is 4.53 µg/mL (≈ 18.7 µM). The “LC50 (96h) literature” value in the data set on Zebrafish embryos (zebrafish embryos, ref Ren et al.) was 3.88 µg/mL (≈ 16 µM). In the data set on Adult Zebrafish, the “LC50(24h)” value was 5.07 µg/mL (≈ 20.9 µM), the “LC50(48h)” value was 4.64 µg/mL (≈ 19.1 µM), the “LC50(72h)” value is 4.15 µg/mL (≈ 17.1 µM) and the “LC50(96h)” value was 4.15 µg/mL (≈ 17.1 µM).

The compound `Cc1cc(C(C)(C)c2ccc(O)c(C)c2)ccc1O` [BPC, 4-[2-(4-hydroxy-3-methylphenyl)propan-2-yl]-2-methylphenol] had an LC50 at 96 h in data set [1] of 4.92 µg/mL (≈ 19.2 µM). In data set [2], the EC50 came out at 2.77 µg/mL (≈ 10.8 µM), the “LOEC heart rate disruption” value is given as 8.53 mg/L, the LOEC hemorrhage is 8.53 mg/L and the “LOEC no blood tail circulation” value came out at 8.53 mg/L. This compound also gave an LOEC tail/spinal malformations in data set [2] of 8.53 mg/L. On zebrafish ERβ2 (zfERβ2), the Emax was determined as 66%. The “Log Kow” value in data set [5] was 4.32. The “LC50 (96h) literature” value in the data set on Zebrafish embryos (setting [8]) is 2.22 µg/mL (≈ 8.66 µM).

Consider `O=S(=O)(c1ccc(O)cc1)c1ccc(OCc2ccccc2)cc1` [BPS-MPE, 4-(4-phenylmethoxyphenyl) sulfonylphenol], for which the LC50 at 96 h in data set [1] worked out at 3.17 µg/mL (≈ 9.31 µM). Further, the EC50 in [2] turned out to be 3.45 µg/mL (≈ 10.1 µM). Besides, the “Log Kow” value in [5] is listed as 4.18. Moreover, the maximal efficacy in the data set with hERβ [6] is recorded as 4%.

With `C[C@]12CC[C@@H]3c4ccc(O)cc4CC[C@H]3[C@@H]1CC[C@@H]2O` [E2, 17β-Estradiol, reference compound], the values for the pEC50 in the data set on hERβ [4] and in the data set on hERβ [6] (NA = not active) were […] and […], respectively.

Regarding `CC(C)(c1cc(Cl)c(O)c(Cl)c1)c1cc(Cl)c(O)c(Cl)c1` [TCBPA, Tetrachloro-bisphenol A], the LC50 at 96 h in [1] turned out to be 0.88 µg/mL (≈ 2.4 µM). For the same compound, in data set [2], the EC50 was 0.48 µg/mL (≈ 1.31 µM), the LOEC edema is 0.5 mg/L, the LOEC head malformations came out at 1 mg/L and the “LOEC heart rate disruption” value amounted to 1 mg/L. In addition, in data set [2], the “LOEC no blood tail circulation” value is reported as 1 mg/L, the “LOEC no spontaneous movement” value turned out to be 2 mg/L, the “LOEC no/Less pigmentation” value is 1 mg/L and the LOEC tail/spinal malformations is 0.5 mg/L. Moreover, in [2], the “LOEC deformity of yolk” value was determined as 1 mg/L. For the same compound, the “estrogenic activity in EASZY assay” value in data set [3] (zebrafish, in vivo) was “absence of estrogenic activity”. Moreover, the Emax at zebrafish ERβ2 (zfERβ2) turned out to be 42%. Besides, the “Log Kow” value in [5] was 6.19. For the same compound, in the data set with hERβ [4], the pEC50 was 4.17 and the maximal efficacy was 21%. In addition, the maximal efficacy in the data set on hERβ [6] is on record as 15%. In addition, the “concentrations causing lethal effects” value in the data set on Zebrafish embryos (3-6 dpf exposure, ref Riu et al. (2014)) is given as “above 1 µM”. In the data set on Zebrafish embryos (setting [10]), the “LC50(144h)” value is 0.75 µg/mL (≈ 2.05 µM) and the LOAELs is 1 mg/L. The “LC50 (96h) literature” value in the data set with Zebrafish embryos (zebrafish embryos, ref Song et al.) is recorded as “≈ 1 mg/L”.
